The values below come from patent US11136313B2, “Compounds, compositions, and methods for modulating CFTR” (Proteostasis Therapeutics, Inc., priority 2015, dated 2021).

T1 sequence (P13569 with tags, fused parts or gaps DEL508-508): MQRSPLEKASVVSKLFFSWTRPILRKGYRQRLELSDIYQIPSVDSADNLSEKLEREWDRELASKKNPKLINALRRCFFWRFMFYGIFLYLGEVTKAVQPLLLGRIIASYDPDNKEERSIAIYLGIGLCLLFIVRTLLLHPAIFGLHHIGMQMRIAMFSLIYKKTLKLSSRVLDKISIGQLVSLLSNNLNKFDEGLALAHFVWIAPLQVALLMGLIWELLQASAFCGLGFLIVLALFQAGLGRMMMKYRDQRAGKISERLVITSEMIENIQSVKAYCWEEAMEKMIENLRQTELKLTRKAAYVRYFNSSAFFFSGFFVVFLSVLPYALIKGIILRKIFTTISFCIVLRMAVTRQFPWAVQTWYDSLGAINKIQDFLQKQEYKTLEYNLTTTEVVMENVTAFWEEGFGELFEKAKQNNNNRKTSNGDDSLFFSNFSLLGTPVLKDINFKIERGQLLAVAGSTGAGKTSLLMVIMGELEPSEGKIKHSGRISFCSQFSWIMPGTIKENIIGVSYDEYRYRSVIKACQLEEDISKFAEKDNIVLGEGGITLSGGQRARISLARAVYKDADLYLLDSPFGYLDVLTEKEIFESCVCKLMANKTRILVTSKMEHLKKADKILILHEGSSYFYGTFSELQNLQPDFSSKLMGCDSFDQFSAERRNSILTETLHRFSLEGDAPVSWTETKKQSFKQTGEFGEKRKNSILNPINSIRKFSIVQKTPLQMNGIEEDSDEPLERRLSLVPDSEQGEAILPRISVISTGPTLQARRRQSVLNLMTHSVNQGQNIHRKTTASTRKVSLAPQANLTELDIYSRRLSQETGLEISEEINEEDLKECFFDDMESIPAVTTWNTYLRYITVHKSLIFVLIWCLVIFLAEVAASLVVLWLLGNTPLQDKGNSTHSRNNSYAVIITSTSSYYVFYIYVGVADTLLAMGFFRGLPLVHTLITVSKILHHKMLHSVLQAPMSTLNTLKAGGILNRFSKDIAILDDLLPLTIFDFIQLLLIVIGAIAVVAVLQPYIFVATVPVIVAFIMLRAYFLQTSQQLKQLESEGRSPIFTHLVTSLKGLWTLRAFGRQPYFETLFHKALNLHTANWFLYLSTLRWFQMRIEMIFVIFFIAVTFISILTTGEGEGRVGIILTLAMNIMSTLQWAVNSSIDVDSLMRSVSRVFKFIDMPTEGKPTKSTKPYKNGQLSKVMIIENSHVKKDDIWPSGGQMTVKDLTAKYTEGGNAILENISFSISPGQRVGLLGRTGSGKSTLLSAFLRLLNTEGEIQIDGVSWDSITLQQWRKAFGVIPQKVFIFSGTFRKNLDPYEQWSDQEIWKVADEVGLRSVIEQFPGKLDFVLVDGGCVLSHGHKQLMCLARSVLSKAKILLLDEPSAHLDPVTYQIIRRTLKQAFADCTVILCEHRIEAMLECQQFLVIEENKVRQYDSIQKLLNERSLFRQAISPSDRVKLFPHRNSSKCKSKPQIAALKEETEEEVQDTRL

The assay concerns the target T1, ΔF508-CFTR (Homo sapiens, UniProt P13569, DEL508-508).
T1 construct: Primary lung epithelial cells homozygous for the Cystic Fibrosis-causing ΔF508 mutation were differentiated for a minimum of 4 weeks; endogenous in cells; host or cells: primary lung epithelial cells (hBE) homozygous for ΔF508, differentiated at an air-liquid interface
As to the kind of experiment: hBE equivalent current (Ieq) assay: AUC of equivalent chloride current after forskolin/VX-770 in primary lung epithelial cells homozygous for ΔF508. The settings on record: relative to CFTR amplifier (Compound A)+VX-809 (3 uM), compound at 10 uM and Compound A at 3 uM, 24 h treatment. It counts as cell-based. Here is the method:
ii. hBE Equivalent Current (Ieq) Assay
Primary lung epithelial cells homozygous for the Cystic Fibrosis-causing ΔF508 mutation were differentiated for a minimum of 4 weeks in an air-liquid interface on Costar 24 well HTS filter plates prior to the equivalent current (Ieq) measurements. Cells were apically mucus-washed for 30 minutes 24 h prior to treatment with compounds. The basolateral media was removed and replaced with media containing the compound of interest diluted to its final concentration from DMSO stocks. Treated cells were incubated at 37° C. and 5% CO2 for 24 hours. At the end of the treatment period, the media was changed to the Ieq experimental solution for 2 hours before the experiment and plates are maintained in a CO2-free incubator during this period. The plates containing the cells were then placed in pre-warmed heating blocks at 36° C.±0.5 for 15 minutes before measurements are taken. The transepithelial voltage (VT) and conductance (GT) were measured using a custom 24 channel current clamp (TECC-24) with 24 well electrode manifold. The Ieq assay measurements were made following additions with standardized time periods: • 1. The baseline VT and GT values were measured for approximately 20 minutes. • 2. Benzamil was added to block ENaC for 15 minutes. • 3. Forskolin plus VX-770 were added to maximally activate ΔF508-CFTR for 27 minutes. • 4. Bumetanide was added to inhibit the NaK2Cl cotransporter and shut-off secretion of chloride.
The activity data captured was the area under the curve (AUC) for the traces of the equivalent chloride current. The AUC was collected from the time of the forskolin/VX-770 addition until the inhibition by bumetanide addition. Correction in response to compound treatment was scored as the increase in the AUC for compound-treated samples over that of vehicle-treated samples.
(+ indicates activity<50% of an CFTR amplifier (Compound A)+VX-809 (3 uM) with compound at 10 uM and Compound A at 3 uM; ++ indicates activity>50% of CFTR amplifier+VX-809 (3 uM) with compound at 10 uM and Compound A at 3 uM.
As to `COc1ccc(C)c2nc(-c3cc4ccccc4o3)cc(C(=O)O)c12` [Compound 14, 2-(1-Benzofuran-2-yl)-5-methoxy-8-methylquinoline-4-carboxylic acid], the Activity result was “+ (activity<50% of an CFTR amplifier (Compound A)+VX-809 (3 uM) with compound at 10 uM and Compound A at 3 uM)”.
Regarding `CO[C@]1(C)CC[C@H](COc2ccc(C)c3nc(-c4oc5ccccc5c4C)cc(C(=O)[O-])c23)CC1.[Na+]` [Compound 387], the Activity result is “++ (activity>50% of CFTR amplifier+VX-809 (3 uM) with compound at 10 uM and Compound A at 3 uM)”.
Take `CCc1c(-c2cc(C(=O)O)c3c(C)ccc(C)c3n2)oc2ccccc12` [Compound 32, 2-(3-Ethyl-1-benzofuran-2-yl)-5,8-dimethylquinoline-4-carboxylic acid]: the Activity result was “++ (activity>50% of CFTR amplifier+VX-809 (3 uM) with compound at 10 uM and Compound A at 3 uM)”.
Next, `Cc1c(-c2cc(-c3cc(O)[nH]n3)c3c(OC(C)c4ccccc4)ccc(C)c3n2)oc2ccccc12` (stereo not drawn) [Compound 362]: “+ (activity<50% of an CFTR amplifier (Compound A)+VX-809 (3 uM) with compound at 10 uM and Compound A at 3 uM)”.
With `Cc1c(-c2cc(C(=O)[O-])c3c(O[C@H](C)C4CCOCC4)ccc(C)c3n2)oc2ccccc12.[Na+]` [Compound 245, Sodium 5-((1R)-1-(tetrahydro-2H-pyran-4-yl)ethoxy)-8-methyl-2-(3-methyl-1-benzofuran-2-yl)quinoline-4-carboxylate] the entry was “++ (activity>50% of CFTR amplifier+VX-809 (3 uM) with compound at 10 uM and Compound A at 3 uM)”.
With `Cc1c(-c2cc(C(=O)[O-])c3c(OC[C@H]4C[C@H]5CC[C@@H](C4)O5)ccc(C)c3n2)oc2ccccc12.[Na+]` [Compound 357], the Activity entry is “++ (activity>50% of CFTR amplifier+VX-809 (3 uM) with compound at 10 uM and Compound A at 3 uM)”.
Next, `Cc1c(-c2cc(C(=O)O)c3c(OC4CCc5ccccc54)ccc(C)c3n2)oc2ccccc12` (stereo not drawn) [Compound 336]: “++ (activity>50% of CFTR amplifier+VX-809 (3 uM) with compound at 10 uM and Compound A at 3 uM)”; `CO[C@]1(C)C[C@@H](COc2ccc(C)c3nc(-c4sc5ccccc5c4C)cc(C(=O)[O-])c23)C1.[Na+]` [Compound 325]: “++ (activity>50% of CFTR amplifier+VX-809 (3 uM) with compound at 10 uM and Compound A at 3 uM)”.
`Cc1ccc(C)c2c(C(=O)O)cc(-c3oc4cccc(C)c4c3C)nc12` [Compound 128, 2-(3,4-Dimethyl-1-benzofuran-2-yl)-5,8-dimethylquinoline-4-carboxylic acid]: the Activity result is “+ (activity<50% of an CFTR amplifier (Compound A)+VX-809 (3 uM) with compound at 10 uM and Compound A at 3 uM)”.
In the case of `Cc1c(-c2cc(C(=O)[O-])c3c(O[C@H]4C[C@H]5CC[C@@H](C4)O5)ccc(C)c3n2)sc2ccccc12.[Na+]` [Compound 353], the Activity result is “++ (activity>50% of CFTR amplifier+VX-809 (3 uM) with compound at 10 uM and Compound A at 3 uM)”.
Next, `Cc1c(-c2cc(C(=O)O)c3c(OCc4ccccc4)ccc(C)c3n2)sc2ccccc12` [Compound 33, 5-(Benzyloxy)-8-methyl-2-(3-methyl-1-benzothiophen-2-yl)quinoline-4-carboxylic acid]: “++ (activity>50% of CFTR amplifier+VX-809 (3 uM) with compound at 10 uM and Compound A at 3 uM)”; `Cc1c(-c2cc(C(=O)O)c3c(OCc4ccccn4)ccc(C)c3n2)oc2ccccc12` [Compound 115, 8-Methyl-2-(3-methyl-1-benzofuran-2-yl)-5-(pyridin-2-ylmethoxy)quinoline-4-carboxylic acid]: “+ (activity<50% of an CFTR amplifier (Compound A)+VX-809 (3 uM) with compound at 10 uM and Compound A at 3 uM)”.
For `Cc1c(-c2cc(C(=O)[O-])c3c(OC4CC(C)(C)C4)ccc(C)c3n2)oc2ccccc12.[Na+]` [Compound 368], the Activity entry is “++ (activity>50% of CFTR amplifier+VX-809 (3 uM) with compound at 10 uM and Compound A at 3 uM)”.
With `Cc1cc(C)c2nc(-c3nc4ccccc4o3)cc(C(=O)O)c2c1` [Compound 3, 2-(1,3-Benzoxazol-2-yl)-6,8-dimethylquinoline-4-carboxylic acid] the entry was “+ (activity<50% of an CFTR amplifier (Compound A)+VX-809 (3 uM) with compound at 10 uM and Compound A at 3 uM)”; with `Cc1c(-c2cc(C(=O)[O-])c3c(O[C@@H](C)c4ccc(OC(F)F)cc4)ccc(C)c3n2)oc2ccccc12.[Na+]` [Compound 236], “++ (activity>50% of CFTR amplifier+VX-809 (3 uM) with compound at 10 uM and Compound A at 3 uM)”; with `Cc1c(-c2cc(C(=O)O)c3c(OCc4ccccc4)ccc(C)c3n2)oc2ccccc12` [Compound 30, 5-(benzyloxy)-8-methyl-2-(3-methyl-1-benzofuran-2-yl)quinoline-4-carboxylic acid], “++ (activity>50% of CFTR amplifier+VX-809 (3 uM) with compound at 10 uM and Compound A at 3 uM)”.
Take `CCc1ccc(OC2CCCCC2)c2c(C(=O)O)cc(-c3sc4ccccc4c3C)nc12` [Compound 135, 5-(Cyclohexyloxy)-8-ethyl-2-(3-methyl-1-benzothiophen-2-yl)quinoline-4-carboxylic acid]: the Activity entry is “++ (activity>50% of CFTR amplifier+VX-809 (3 uM) with compound at 10 uM and Compound A at 3 uM)”.
Regarding `Cc1c(-c2cc(C(=O)O)c3cc(C#N)cc(C)c3n2)oc2ccccc12` [Compound 22, 6-Cyano-8-methyl-2-(3-methyl-1-benzofuran-2-yl)quinoline-4-carboxylic Acid], the Activity entry is “+ (activity<50% of an CFTR amplifier (Compound A)+VX-809 (3 uM) with compound at 10 uM and Compound A at 3 uM)”.
Next, `Cc1c(-c2cc(C(=O)[O-])c3c(OCC4CCC5(CC4)COC5)ccc(C)c3n2)sc2ccccc12.[Na+]` [Compound 384]: “++ (activity>50% of CFTR amplifier+VX-809 (3 uM) with compound at 10 uM and Compound A at 3 uM)”; `Cc1ccc(C)c2c(C(=O)O)cc(-c3cc4ccccc4s3)nc12` [Compound 13, 2-(1-Benzothiophen-2-yl)-5,8-dimethylquinoline-4-carboxylic acid]: “+ (activity<50% of an CFTR amplifier (Compound A)+VX-809 (3 uM) with compound at 10 uM and Compound A at 3 uM)”.
Take `Cc1c(-c2cc(C(=O)[O-])c3c(O[C@H]4CCC[C@H](C)C4)ccc(C)c3n2)sc2ccccc12.[Na+]` [Compound 220, Sodium 8-Methyl-2-(3-methyl-1-benzothiophen-2-yl)-5-[[(1S,3S)-3-methylcyclohexyl]oxy]quinoline-4-carboxylate]: the Activity result was “++ (activity>50% of CFTR amplifier+VX-809 (3 uM) with compound at 10 uM and Compound A at 3 uM)”.
For `CCc1ccc(OC2CCCCC2)c2c(C(=O)O)cc(-c3c(C)oc4ccccc34)nc12` [Compound 176], the Activity entry was “++ (activity>50% of CFTR amplifier+VX-809 (3 uM) with compound at 10 uM and Compound A at 3 uM)”.
With `Cc1c(-c2cc(C(=O)O)c3cc(C(F)(F)F)cc(C)c3n2)oc2ccccc12` [Compound 19, 8-Methyl-2-(3-methyl-1-benzofuran-2-yl)-6-(trifluoromethyl)quinoline-4-carboxylic acid] the entry was “++ (activity>50% of CFTR amplifier+VX-809 (3 uM) with compound at 10 uM and Compound A at 3 uM)”; with `CO[C@]1(C)C[C@H](COc2ccc(C)c3nc(-c4sc5ccccc5c4C)cc(C(=O)[O-])c23)C1.[Na+]` [Compound 324], “++ (activity>50% of CFTR amplifier+VX-809 (3 uM) with compound at 10 uM and Compound A at 3 uM)”.
